Here are results for one compound from US6521764B1, “Process for the preparation of fumagillin” (Sanofi-Synthelabo, priority 1999, dated 2003).

Data set [1] is described as follows: 2-week stability study of Fumagillin samples obtained by various methods, Fumagillin content by HPLC before and after stressing. Format: physicochemical. The conditions noted are these: for HPLC Assay, After 2 weeks at 40° C., ambient humidity / HPLC Assay, Initial: 3 equivalent acetic acid; for HPLC Assay, Initial: before stressing. As to the method:
We carried out a 2-week stability study at 40 OC , ambient humidity, of selected samples obtained by various methods. The Fumagillin content of the samples was measured by HPLC before and after the stressing.

The conditions of data set [2]: at -80 °C; cited from earlier work.
[3] abbreviates: sample liberated from methanol, crude product.
[4] abbreviates: sample liberated from methanol-dichloromethane 5:1, crude product.
Where [5] appears, read: sample liberated from toluene, crude product.
The mark [6] stands for this setting: sample liberated in aqueous medium, followed by extraction with dichloromethane, concentration and crystallization in methanol.

Take `CO[C@@H]1[C@H](OC(=O)/C=C/C=C/C=C/C=C/C(=O)O)CC[C@]2(CO2)[C@H]1[C@@]1(C)O[C@@H]1CC=C(C)C` [Fumagillin]: the “HPLC Assay, After 2 weeks at 40° C., ambient humidity” value in data set [1] (setting [3]) came to 85.1%; in data set [1] (setting [4]) it was 49.9%; in data set [1] (setting [5]), 61.0%; in data set [1] (setting [6]), 54.9%. In addition, the “HPLC Assay, Initial” value in data set [1] (setting [3]) is 97.6%; in data set [1] (setting [4]) it was 96.3%; in data set [1] (setting [5]) it was 92.6%; in data set [1] (setting [6]) it was 96.9%. Moreover, the “Stability compared with samples obtained by other methods” value in data set [1] (samples obtained by the alcoholic method, 2 weeks at 40 °C, ambient humidity) is “considerably more stable”. In addition, the Stability on storage entry in data set [2] was “stable”.
